In ChEMBL document CHEMBL3351320, “Discovery of novel tetrahydroisoquinoline derivatives as orally active N-type calcium channel blockers with high selectivity for hERG potassium channels” (Bioorg Med Chem, 2014):
Activity calls are given as the source filed them. No cut-off for these calls is given here.

Key:
[1] = Inhibition of N-type calcium channel in human IMR-32 cells assessed as intracellular calcium concentration by FLIPR; format: cell-based
hERG (KCNH2) = hERG (KCNH2) (Homo sapiens, UniProt Q12809); assay: Inhibition of human ERG expressed in CHO cells at 10 uM by Rb efflux assay; format: cell-based; settings: CHO cells expressing human ERG
Chain of hERG (KCNH2) (Q12809 whole entry): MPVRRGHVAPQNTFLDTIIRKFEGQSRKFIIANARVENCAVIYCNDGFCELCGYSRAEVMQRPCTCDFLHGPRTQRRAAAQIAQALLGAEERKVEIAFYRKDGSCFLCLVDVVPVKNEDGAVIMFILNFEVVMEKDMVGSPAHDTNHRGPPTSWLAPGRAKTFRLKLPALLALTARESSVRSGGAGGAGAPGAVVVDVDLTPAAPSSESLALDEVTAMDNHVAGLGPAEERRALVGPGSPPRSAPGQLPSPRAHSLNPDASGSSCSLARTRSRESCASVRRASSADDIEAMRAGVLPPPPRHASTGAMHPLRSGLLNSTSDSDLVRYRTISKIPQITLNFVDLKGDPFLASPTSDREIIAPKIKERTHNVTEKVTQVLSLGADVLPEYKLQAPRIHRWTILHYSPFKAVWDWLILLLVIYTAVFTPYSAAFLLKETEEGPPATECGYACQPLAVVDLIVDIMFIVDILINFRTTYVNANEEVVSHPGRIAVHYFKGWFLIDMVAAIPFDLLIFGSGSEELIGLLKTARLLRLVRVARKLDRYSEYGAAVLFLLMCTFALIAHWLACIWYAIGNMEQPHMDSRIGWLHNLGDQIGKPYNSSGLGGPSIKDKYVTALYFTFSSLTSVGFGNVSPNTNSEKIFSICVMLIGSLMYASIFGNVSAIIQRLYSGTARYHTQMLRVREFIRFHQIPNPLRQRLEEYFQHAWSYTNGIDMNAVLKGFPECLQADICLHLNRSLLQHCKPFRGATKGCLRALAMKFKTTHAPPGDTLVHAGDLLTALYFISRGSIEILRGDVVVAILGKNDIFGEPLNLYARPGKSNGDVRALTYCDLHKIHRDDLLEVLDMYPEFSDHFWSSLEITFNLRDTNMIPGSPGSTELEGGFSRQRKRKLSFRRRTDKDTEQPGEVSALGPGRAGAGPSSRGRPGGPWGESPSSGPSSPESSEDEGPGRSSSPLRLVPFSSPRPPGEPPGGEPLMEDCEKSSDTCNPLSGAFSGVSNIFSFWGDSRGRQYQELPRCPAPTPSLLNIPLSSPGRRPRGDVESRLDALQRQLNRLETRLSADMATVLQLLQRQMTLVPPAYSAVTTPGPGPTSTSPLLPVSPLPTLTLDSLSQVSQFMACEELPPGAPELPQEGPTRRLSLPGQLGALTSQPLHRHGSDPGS

[2] = molecular target: Voltage-gated inwardly rectifying potassium channel KCNH2 (Homo sapiens, UniProt Q12809); assay: Inhibition of human ERG expressed in CHO cells by Rb efflux assay
Chain of Voltage-gated inwardly rectifying potassium channel KCNH2 (Q12809 whole entry): as above

IMR-32 = assay: Selectivity ratio of IC50 for human ERG to IC50 for N-type calcium channel in human IMR-32 cells; format: cell-based
[3] = Aqueous solubility in Japanese Pharmacopoeia at pH 6.8; format: physicochemical; settings: aqueous Japanese Pharmacopoeia medium, pH 6.8, pH 6.8
[4] = Aqueous solubility in Japanese Pharmacopoeia at pH 1.2; format: physicochemical; settings: aqueous Japanese Pharmacopoeia medium, pH 1.2, pH 1.2
Cytochrome P450 1A2 = molecular target: T1, Cytochrome P450 1A2 (Homo sapiens, UniProt P05177); assay: Inhibition of human recombinant CYP1A2 after 15 mins
T1 sequence (P05177 whole entry): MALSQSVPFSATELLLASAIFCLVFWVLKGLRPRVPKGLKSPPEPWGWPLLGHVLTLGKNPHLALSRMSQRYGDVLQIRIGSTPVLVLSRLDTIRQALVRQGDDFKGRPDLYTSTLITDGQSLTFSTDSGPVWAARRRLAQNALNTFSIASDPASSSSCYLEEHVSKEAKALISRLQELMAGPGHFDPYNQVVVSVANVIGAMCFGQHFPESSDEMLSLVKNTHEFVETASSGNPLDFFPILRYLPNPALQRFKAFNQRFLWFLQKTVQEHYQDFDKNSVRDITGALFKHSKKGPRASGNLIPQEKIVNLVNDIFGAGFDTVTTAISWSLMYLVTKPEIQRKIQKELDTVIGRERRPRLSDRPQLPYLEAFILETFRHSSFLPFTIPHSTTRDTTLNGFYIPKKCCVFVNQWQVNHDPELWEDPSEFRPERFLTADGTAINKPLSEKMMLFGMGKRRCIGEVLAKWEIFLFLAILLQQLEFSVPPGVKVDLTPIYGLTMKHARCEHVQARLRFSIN

CYP3A4 = CYP3A4 (Homo sapiens, UniProt P08684); assay: Inhibition of CYP3A4 in human liver microsomes assessed as residual activity assessed as residual activity using midazolam as substrate preincubated for 30 mins by LC/MS/MS analysis; settings: probe midazolam
Chain of CYP3A4 (P08684 whole entry): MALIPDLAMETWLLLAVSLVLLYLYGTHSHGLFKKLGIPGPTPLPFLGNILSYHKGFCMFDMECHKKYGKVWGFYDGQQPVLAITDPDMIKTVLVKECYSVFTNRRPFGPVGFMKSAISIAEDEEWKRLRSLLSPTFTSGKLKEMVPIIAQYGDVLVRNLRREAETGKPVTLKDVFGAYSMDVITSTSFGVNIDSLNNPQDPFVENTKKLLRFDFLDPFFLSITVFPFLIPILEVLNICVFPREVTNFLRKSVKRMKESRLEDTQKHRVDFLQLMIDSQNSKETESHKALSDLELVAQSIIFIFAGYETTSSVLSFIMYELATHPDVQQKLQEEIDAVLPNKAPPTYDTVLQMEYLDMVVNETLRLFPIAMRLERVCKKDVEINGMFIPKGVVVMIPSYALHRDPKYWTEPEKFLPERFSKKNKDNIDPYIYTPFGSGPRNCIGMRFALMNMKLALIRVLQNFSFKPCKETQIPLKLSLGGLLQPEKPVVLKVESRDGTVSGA

Cytochrome P450 2C19 = Cytochrome P450 2C19 (Homo sapiens, UniProt P33261); assay: Inhibition of human recombinant CYP2C19 after 30 mins
Chain of Cytochrome P450 2C19 (P33261 whole entry): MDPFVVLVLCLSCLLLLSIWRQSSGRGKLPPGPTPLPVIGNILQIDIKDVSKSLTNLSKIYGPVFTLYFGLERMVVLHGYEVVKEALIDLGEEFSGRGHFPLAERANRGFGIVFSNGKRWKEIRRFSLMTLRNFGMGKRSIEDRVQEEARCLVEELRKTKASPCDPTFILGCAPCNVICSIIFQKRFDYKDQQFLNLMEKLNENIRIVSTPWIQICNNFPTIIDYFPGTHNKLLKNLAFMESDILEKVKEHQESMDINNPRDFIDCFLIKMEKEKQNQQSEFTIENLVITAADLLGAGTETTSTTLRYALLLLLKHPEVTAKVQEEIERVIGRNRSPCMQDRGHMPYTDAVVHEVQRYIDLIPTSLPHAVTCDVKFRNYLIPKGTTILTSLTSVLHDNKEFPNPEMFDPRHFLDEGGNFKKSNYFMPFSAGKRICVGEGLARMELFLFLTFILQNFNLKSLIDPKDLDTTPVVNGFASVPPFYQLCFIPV

Cytochrome P450 2D6 = Cytochrome P450 2D6 (Homo sapiens, UniProt P10635); assay: Inhibition of human recombinant CYP2D6 after 30 mins
Chain of Cytochrome P450 2D6 (P10635 whole entry): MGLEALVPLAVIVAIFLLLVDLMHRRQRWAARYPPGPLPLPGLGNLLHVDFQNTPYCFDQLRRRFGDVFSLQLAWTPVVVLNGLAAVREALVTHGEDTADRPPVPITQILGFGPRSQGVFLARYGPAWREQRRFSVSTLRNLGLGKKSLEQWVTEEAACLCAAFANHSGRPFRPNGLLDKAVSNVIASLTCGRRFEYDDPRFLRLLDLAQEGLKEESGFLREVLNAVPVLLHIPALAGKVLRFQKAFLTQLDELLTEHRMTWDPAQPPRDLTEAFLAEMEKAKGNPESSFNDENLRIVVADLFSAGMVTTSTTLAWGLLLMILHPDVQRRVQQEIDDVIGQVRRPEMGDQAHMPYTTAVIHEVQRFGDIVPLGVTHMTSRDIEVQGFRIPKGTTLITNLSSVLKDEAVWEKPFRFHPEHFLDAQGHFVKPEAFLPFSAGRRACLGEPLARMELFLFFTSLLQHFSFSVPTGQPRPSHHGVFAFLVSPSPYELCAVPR

Cytochrome P450 2C9 = Cytochrome P450 2C9 (Homo sapiens, UniProt P11712); assay: Inhibition of human recombinant CYP2C9 after 45 mins
Chain of Cytochrome P450 2C9 (P11712 whole entry): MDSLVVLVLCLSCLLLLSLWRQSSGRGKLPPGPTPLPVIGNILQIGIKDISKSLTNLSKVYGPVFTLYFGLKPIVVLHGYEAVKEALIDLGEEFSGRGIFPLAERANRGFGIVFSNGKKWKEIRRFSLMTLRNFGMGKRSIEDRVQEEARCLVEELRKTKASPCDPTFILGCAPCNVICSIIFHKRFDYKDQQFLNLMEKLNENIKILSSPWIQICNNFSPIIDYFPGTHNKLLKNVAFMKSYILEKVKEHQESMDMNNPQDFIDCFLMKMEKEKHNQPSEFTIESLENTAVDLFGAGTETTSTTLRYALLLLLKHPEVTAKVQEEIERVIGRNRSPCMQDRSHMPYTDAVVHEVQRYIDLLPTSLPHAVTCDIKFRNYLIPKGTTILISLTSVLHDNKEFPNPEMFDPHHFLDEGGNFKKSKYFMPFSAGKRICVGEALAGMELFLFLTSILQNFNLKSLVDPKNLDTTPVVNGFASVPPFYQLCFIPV

Rattus norvegicus [5] = assay: Antiallodynic activity in Sprague-Dawley rat spinal nerve ligation model of neuropathic pain assessed as reduction in mechanical allodynia at 3 to 30 mg/kg, po; format: functional, organism-based
[6] = Inhibition of N-type calcium channel in human IMR-32 cells under holding potential at -90 mV state-biased condition by whole cell patch-clamp electrophysiological method
[7] = Inhibition of N-type calcium channel in human IMR-32 cells under holding potential at -70 mV inactivated state by whole cell patch-clamp electrophysiological method
Rattus norvegicus [8] = assay: Antiallodynic activity in Sprague-Dawley rat spinal nerve ligation model of neuropathic pain assessed as maximal reduction in mechanical allodynia at 30 mg/kg, po; format: functional, organism-based; set-up: dose 30 mg/kg

## O=C(CNCCc1c(Cl)cccc1Cl)N1CCc2ccccc2C1C1CCCCC1 (stereo unspecified)
[1]
  IC50: 2.4 µM

## O=C(CNCCc1ccccc1O)N1CCc2ccccc2C1C1CCCCC1 (stereo unspecified)
hERG (KCNH2)
  inhibition at 10 µM: 54.4%
[1]
  IC50: 3 µM

## COC(=O)c1ccc(CCNCC(=O)N2CCc3ccccc3C2C2CCCCC2)cc1 (stereo unspecified)
hERG (KCNH2)
  inhibition at 10 µM: 71.7%
[1]
  IC50: 2.3 µM

## O=C(CNCCC1(O)CCCCC1)N1CCc2ccccc2C1C1CCCCC1 (stereo unspecified)
[1]
  IC50: 1.7 µM

## O=C(CNCC1CCCCC1)N1CCc2ccccc2C1C1CCCCC1 (stereo unspecified)
[2]
  IC50: 26 µM
IMR-32
  Ratio IC50: 20
[1]
  IC50: 1.3 µM

## O=C(CNCC1(O)CCCC1)N1CCc2ccccc2C1C1CCCCC1 (stereo unspecified)
[2]
  IC50: 78.6 µM
IMR-32
  Ratio IC50: 28.1
[1]
  IC50: 2.8 µM

## COc1cc(CN2CCN(CCCCCC(c3ccc(F)cc3)c3ccc(F)cc3)CC2)cc(OC)c1OC
[2]
  IC50: 3.4 µM
[3]
  solubility: < 1 µM
[4]
  solubility: > 100 µM
[1]
  IC50: 1.1 µM

## O=C(O)c1ccc(CCNCC(=O)N2CCc3ccccc3C2C2CCCCC2)cc1 (stereo unspecified)
hERG (KCNH2)
  inhibition at 10 µM: 9%
[1]
  IC50: > 10 µM

## O=C(CNCC1(O)CCCCCC1)N1CCc2ccccc2C1C1CCCCC1 (stereo unspecified)
[2]
  IC50: 50.1 µM
IMR-32
  Ratio IC50: 19.6
[1]
  IC50: 2.6 µM

## O=C(CNCCc1ccccc1)N1CCc2ccccc2C1C1CCCCC1 (stereo unspecified)
hERG (KCNH2)
  inhibition at 10 µM: 57.8%
[1]
  IC50: 1.3 µM

## COc1ccccc1CCNCC(=O)N1CCc2ccccc2C1C1CCCCC1 (stereo unspecified)
Cytochrome P450 1A2
  IC50: 26 µM
CYP3A4
  activity at 30 min: 53%
Cytochrome P450 2C19
  IC50: 3 µM
[3]
  solubility: > 100 µM
[4]
  solubility: > 100 µM
Cytochrome P450 2D6
  IC50: 0.37 µM
Cytochrome P450 2C9
  IC50: 4.8 µM
[1]
  IC50: 0.6 µM

## COc1c(OC(C)(C)C)cc(CN2CC(=O)N(CCCCCC(c3ccc(F)cc3)c3ccc(F)cc3)CC2=O)cc1OC(C)(C)C
[2]
  IC50: > 100 µM
[3]
  solubility: < 1 µM
[4]
  solubility: < 1 µM
[1]
  IC50: 0.43 µM

## O=C(CNCC1(O)CCCCC1)N1CCc2ccccc2[C@H]1C1CCCCC1
[1]
  IC50: 1.5 µM

## O=C(CNCC1(O)CCCCC1)N1CCc2ccccc2[C@@H]1C1CCCCC1
Rattus norvegicus [5]
  inhibition: Active
[6]
  IC50: 12.7 µM
[7]
  IC50: 1.7 µM
[1]
  IC50: 1 µM
Rattus norvegicus [8]
  inhibition: Active
